System: 354836-022-R-J1-PDC multicell spheroid viability
Experiment: Anticancer human tumor 354836-022-R-J1-PDC patient-derived head and neck squamous cell carcinoma cell line growth inhibition [PI3K]
Conditions: for IC50: curve of first compound; for viability, T/C: stronger effect = lower value
In short: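 Viability of mixed-cell spheroids was determined after exposure to pairwise combinations, one partner being inavolisib, alpelisib, duvelisib or copanlisib. Highest tested concentration matched clinical Cmax where known and 10 microM where not, descending in half-log steps.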

[1] = second compound 0.00316 µM, first compound 0.000316 µM
[2] = second compound 0.00316 µM, first compound 0.001 µM
[3] = second compound 0.00316 µM, first compound 0.00316 µM
[4] = second compound 0.00316 µM, first compound 0.01 µM
[5] = second compound 0.00316 µM, first compound 0.0316 µM
[6] = second compound 0.00316 µM, first compound 0.1 µM
[7] = second compound 0.01 µM, first compound 0.000316 µM
[8] = second compound 0.01 µM, first compound 0.001 µM
[9] = second compound 0.01 µM, first compound 0.00316 µM
[10] = second compound 0.01 µM, first compound 0.01 µM
[11] = second compound 0.01 µM, first compound 0.0316 µM
[12] = second compound 0.01 µM, first compound 0.1 µM
[13] = second compound 0.0316 µM, first compound 0.000316 µM
[14] = second compound 0.0316 µM, first compound 0.001 µM
[15] = second compound 0.0316 µM, first compound 0.00316 µM
[16] = second compound 0.0316 µM, first compound 0.01 µM
[17] = second compound 0.0316 µM, first compound 0.0316 µM
[18] = second compound 0.0316 µM, first compound 0.1 µM
[19] = second compound 0.1 µM, first compound 0.000316 µM
[20] = second compound 0.1 µM, first compound 0.001 µM
[21] = second compound 0.1 µM, first compound 0.00316 µM
[22] = second compound 0.1 µM, first compound 0.01 µM
[23] = second compound 0.1 µM, first compound 0.0316 µM
[24] = second compound 0.1 µM, first compound 0.1 µM
[25] = second compound 0.316 µM, first compound 0.000316 µM
[26] = second compound 0.316 µM, first compound 0.001 µM
[27] = second compound 0.316 µM, first compound 0.00316 µM
[28] = second compound 0.316 µM, first compound 0.01 µM
[29] = second compound 0.316 µM, first compound 0.0316 µM
[30] = second compound 0.316 µM, first compound 0.1 µM
[31] = second compound 1 µM, first compound 0.000316 µM
[32] = second compound 1 µM, first compound 0.001 µM
[33] = second compound 1 µM, first compound 0.00316 µM
[34] = second compound 1 µM, first compound 0.01 µM
[35] = second compound 1 µM, first compound 0.0316 µM
[36] = second compound 1 µM, first compound 0.1 µM
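Further: spheroids exposed to agents for seven days before the viability read.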

Q: How did the IC50 (second compound 0.00316 µM) turn out when CC(=O)c1c(C)c2cnc(Nc3ccc(N4CCNCC4)cn3)nc2n(C2CCCC2)c1=O + COc1c(OCCCN2CCOCC2)ccc2c3n(c(=NC(=O)c4cnc(N)nc4)nc12)CCN3 was run?
A: Its IC50 is over 100 nM.

Q: And the IC50 (second compound 0.01 µM)?
A: Its IC50 is over 100 nM.

Q: What about the IC50 (second compound 0.0316 µM) of the same compound?
A: The IC50 was over 100 nM.

Q: And the IC50 (second compound 0.1 µM)?
A: The IC50 was over 100 nM.

Q: And the IC50 (second compound 0.316 µM)?
A: The IC50 was under 0.316 nM.

Q: And the IC50 (second compound 1 µM)?
A: The IC50 was under 0.316 nM.

Q: And the viability, T/C [1]?
A: Its viability, T/C is 115%.

Q: What about the viability, T/C [2] of the same compound?
A: The viability, T/C was 116%.

Q: What about the viability, T/C [3] of the same compound?
A: The viability, T/C was 119%.

Q: What about the viability, T/C [4] of the same compound?
A: Its viability, T/C is 113%.

Q: And the viability, T/C [5]?
A: Its viability, T/C is 99.9%.

Q: And the viability, T/C [6]?
A: Its viability, T/C is 107%.

Q: What about the viability, T/C [7] of the same compound?
A: The viability, T/C was 107%.

Q: And the viability, T/C [8]?
A: Its viability, T/C is 121%.

Q: What about the viability, T/C [9] of the same compound?
A: The viability, T/C was 93.7%.

Q: And the viability, T/C [10]?
A: The viability, T/C was 99.1%.

Q: What about the viability, T/C [11] of the same compound?
A: The viability, T/C was 85.1%.

Q: And the viability, T/C [12]?
A: Its viability, T/C is 105%.

Q: And the viability, T/C [13]?
A: The viability, T/C was 78.7%.

Q: And the viability, T/C [14]?
A: The viability, T/C was 92.1%.

Q: What about the viability, T/C [15] of the same compound?
A: Its viability, T/C is 81.3%.

Q: And the viability, T/C [16]?
A: Its viability, T/C is 82.2%.

Q: What about the viability, T/C [17] of the same compound?
A: The viability, T/C was 95.9%.

Q: And the viability, T/C [18]?
A: The viability, T/C was 83.3%.

Q: And the viability, T/C [19]?
A: Its viability, T/C is 48.8%.

Q: What about the viability, T/C [20] of the same compound?
A: The viability, T/C was 54.3%.

Q: And the viability, T/C [21]?
A: The viability, T/C was 57.6%.

Q: What about the viability, T/C [22] of the same compound?
A: The viability, T/C was 61.3%.

Q: What about the viability, T/C [23] of the same compound?
A: The viability, T/C was 55.7%.

Q: And the viability, T/C [24]?
A: Its viability, T/C is 59.6%.

Q: And the viability, T/C [25]?
A: The viability, T/C was 15.9%.

Q: And the viability, T/C [26]?
A: The viability, T/C was 16.5%.

Q: And the viability, T/C [27]?
A: The viability, T/C was 12.5%.

Q: What about the viability, T/C [28] of the same compound?
A: The viability, T/C was 14.6%.

Q: What about the viability, T/C [29] of the same compound?
A: The viability, T/C was 15.2%.

Q: What about the viability, T/C [30] of the same compound?
A: Its viability, T/C is 14.1%.

Q: And the viability, T/C [31]?
A: Its viability, T/C is 2.1%.

Q: And the viability, T/C [32]?
A: Its viability, T/C is 1.43%.

Q: And the viability, T/C [33]?
A: Its viability, T/C is 1.73%.

Q: What about the viability, T/C [34] of the same compound?
A: The viability, T/C was 2.18%.

Q: And the viability, T/C [35]?
A: The viability, T/C was 2.06%.

Q: And the viability, T/C [36]?
A: Its viability, T/C is 1.39%.

Q: CC(=O)c1c(C)c2cnc(Nc3ccc(N4CCNCC4)cn3)nc2n(C2CCCC2)c1=O + CC(Nc1ccc2c(c1)OCCn1cc(N3C(=O)OCC3C(F)F)nc1-2)C(N)=O was tested. Which IC50 (second compound 0.00316 µM) did it give?
A: The IC50 was over 100 nM.

Q: What about the IC50 (second compound 0.01 µM) of the same compound?
A: The IC50 was over 100 nM.

Q: What about the IC50 (second compound 0.0316 µM) of the same compound?
A: Its IC50 is over 100 nM.

Q: And the IC50 (second compound 0.1 µM)?
A: Its IC50 is over 100 nM.

Q: And the IC50 (second compound 0.316 µM)?
A: Its IC50 is over 100 nM.

Q: What about the IC50 (second compound 1 µM) of the same compound?
A: The IC50 was over 100 nM.

Q: What about the viability, T/C [1] of the same compound?
A: The viability, T/C was 95.6%.

Q: And the viability, T/C [2]?
A: The viability, T/C was 98%.

Q: And the viability, T/C [3]?
A: The viability, T/C was 109%.

Q: And the viability, T/C [4]?
A: Its viability, T/C is 82.5%.

Q: And the viability, T/C [5]?
A: Its viability, T/C is 102%.

Q: What about the viability, T/C [6] of the same compound?
A: The viability, T/C was 98.7%.

Q: And the viability, T/C [7]?
A: Its viability, T/C is 99%.

Q: And the viability, T/C [8]?
A: The viability, T/C was 94.3%.

Q: What about the viability, T/C [9] of the same compound?
A: Its viability, T/C is 102%.

Q: What about the viability, T/C [10] of the same compound?
A: The viability, T/C was 90%.

Q: And the viability, T/C [11]?
A: The viability, T/C was 94.8%.

Q: And the viability, T/C [12]?
A: Its viability, T/C is 105%.

Q: What about the viability, T/C [13] of the same compound?
A: Its viability, T/C is 85.2%.

Q: What about the viability, T/C [14] of the same compound?
A: The viability, T/C was 109%.

Q: And the viability, T/C [15]?
A: Its viability, T/C is 92.2%.

Q: And the viability, T/C [16]?
A: Its viability, T/C is 97.8%.

Q: And the viability, T/C [17]?
A: The viability, T/C was 98.4%.

Q: And the viability, T/C [18]?
A: Its viability, T/C is 101%.

Q: What about the viability, T/C [19] of the same compound?
A: Its viability, T/C is 80.7%.

Q: What about the viability, T/C [20] of the same compound?
A: Its viability, T/C is 84.2%.

Q: And the viability, T/C [21]?
A: The viability, T/C was 87%.

Q: What about the viability, T/C [22] of the same compound?
A: Its viability, T/C is 93%.

Q: And the viability, T/C [23]?
A: Its viability, T/C is 96.8%.

Q: What about the viability, T/C [24] of the same compound?
A: Its viability, T/C is 80.3%.

Q: What about the viability, T/C [25] of the same compound?
A: Its viability, T/C is 65.8%.

Q: What about the viability, T/C [26] of the same compound?
A: The viability, T/C was 78.9%.

Q: And the viability, T/C [27]?
A: The viability, T/C was 70.8%.

Q: What about the viability, T/C [28] of the same compound?
A: Its viability, T/C is 68%.

Q: What about the viability, T/C [29] of the same compound?
A: Its viability, T/C is 70.7%.

Q: And the viability, T/C [30]?
A: The viability, T/C was 72.4%.

Q: And the viability, T/C [31]?
A: Its viability, T/C is 65.5%.

Q: And the viability, T/C [32]?
A: Its viability, T/C is 60%.

Q: And the viability, T/C [33]?
A: The viability, T/C was 54.4%.

Q: What about the viability, T/C [34] of the same compound?
A: Its viability, T/C is 65.7%.

Q: And the viability, T/C [35]?
A: The viability, T/C was 62.7%.

Q: What about the viability, T/C [36] of the same compound?
A: The viability, T/C was 63.6%.
